Consider 30 molecules from patent US20050288347A1, “Certain triazole-based compounds, compositions, and uses thereof” (priority 2004, published 2005).

Molecules are shown by their SMILES. Entries after “also recorded” stand apart in the source; their conditions may differ.

One experiment deals with protein kinase. Nature of the experiment: HTS ATP-utilizing enzyme assay, off-chip mobility-shift format (Caliper HTS 250). In kind it is biochemical, human. As to conditions: kinase(s) for which the compound exhibits protein kinase inhibitory activity; test compound 10 μM; active = greater than three-sigma from the mean activity of inactive compounds. Put shortly: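 Single-point screen at 10 μM compound in HEPES pH 7.5 buffer with Triton X-100 and BSA, 2.5 h at 20–22 °C. Substrate-to-phosphopeptide ratio measured by off-chip microfluidic mobility shift; EDTA wells as 100% and DMSO wells as 0% control, hits called at three-sigma limits.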
Regarding `COc1ccc(OCc2nnc(SCC(=O)N3CCCc4ccccc43)n2-c2ccc(C)cc2)cc1`, the Kinase entry is “LCK”.

`COc1ccccc1-n1c(SCC(N)=O)nnc1-c1ccccc1O`: the Kinase result is given as “AURORA-A”.

Regarding `O=C(CSc1nnc(CSc2nc3ccccc3s2)n1-c1ccccc1)N1CCN(CCO)CC1`, the Kinase result is reported as “HCK”.

On to `COc1ccc(OC)c(C(=O)CSc2nnc(-c3ccccc3N)n2C)c1`, for which the Kinase entry is reported as “PDGFRR-α”.

Take `COc1ccc(OCc2nnc(SCC(=O)Nc3ccccc3OC)n2C)cc1`: the Kinase entry was “PDGFRR-α and PKA”.

As to `CCOC(=O)c1c(NC(=O)CSc2nnc(CNc3ccc(OC)cc3)n2C)sc(C(C)=O)c1C`, the Kinase entry was “AURORA-A and FYN and PDGFRR-α”.

For the molecule `NC(=O)CSc1nnc(-c2ccc(O)cc2)n1-c1ccccc1` [2-(5-(4-hydroxyphenyl)-4-phenyl-4H-1,2,4-triazol-3-ylthio)acetamide], the Kinase entry was “GSK3-β and GSK3-α and INSR”.

On to `CCOC(=O)CN(C(=O)CSc1nnc(-c2ccncc2)n1CCCN(C)C)c1cccc([N+](=O)[O-])c1`, for which the Kinase entry is “CDK1”.

Regarding `CCn1c(SCC(=O)N2CCCC2)nnc1-c1ccc(S(=O)(=O)N2CCCCCC2)cc1`, the Kinase result is “AURORA-A”.

As for `Fc1ccc(NCc2nnc(S)n2-c2ccccc2)cc1` [5-((4-fluorophenylamino)methyl)-4-phenyl-4H-1,2,4-triazole-3-thiol], the Kinase entry is “AURORA-A”.

Consider `Cn1c(SCSC#N)nnc1-c1ccc(S(=O)(=O)N2CCOCC2)cc1`, for which the Kinase entry was “GSK3-β”.

As for `CC(Sc1nnc(-c2cccnc2)n1-c1ccccc1)C(=O)O` (stereo not drawn) [2-(4-phenyl-5-(pyridin-3-yl)-4H-1,2,4-triazol-3-ylthio)propanoic acid], the Kinase entry is “AURORA-A”.

`COc1ccc(-n2c(SC(C)C(=O)O)nnc2-c2ccc(NC(=O)c3ccccc3)cc2)cc1` (stereo not drawn): the Kinase result is “CHEK2; also recorded: AURORA-A”.

As for `CCOC(=O)CN(C(=O)CSc1nnc(-c2ccncc2)n1Cc1ccco1)c1cccc([N+](=O)[O-])c1`, the Kinase entry is “FYN and GSK3-α”.

As for `NC(=O)CSc1nnc(CNc2ccc(F)cc2)n1Cc1ccccc1`, the Kinase result is “GSK3-β and AKT1 and GSK3-α”.

With `COc1cccc(OCc2nnc(SCC(=O)O)n2Cc2ccccc2)c1`, the Kinase result is listed as “MSK1”.

As to `COc1ccc(NCc2nnc(SCC(=O)Nc3ccccc3)n2-c2ccc(C)cc2)cc1`, the Kinase entry was “FYN and PDGFRR-α and FLT-3”.

With `CCOc1ccc(NCc2nnc(S)n2-c2ccc(C)cc2)cc1` [5-((4-ethoxyphenylamino)methyl)-4-p-tolyl-4H-1,2,4-triazole-3-thiol], the Kinase entry was “AURORA-A”.

Consider `CCOC(=O)CN(C(=O)CSc1nnc(-c2ccncc2)n1-c1ccccc1)c1ccccc1`, for which the Kinase result is listed as “PDGFRR-α”.

The experiment is the same for the next values; noted with them: test compound 10 μM; active = activity greater than three-sigma from the mean of the predominately inactive population for that enzyme.
With `N#Cc1ccccc1CSc1nnc(-c2ccccc2)[nH]1` [2-((5-phenyl-4H-1,2,4-triazol-3-ylthio)methyl)benzonitrile], the “protein kinase against which the compound exhibits inhibitory activity (Table 3)” value was “AURORA-A; also recorded: CHEK2; also recorded: GSK3-β”.

`CCC(O)CSc1nnc(-c2cccc(Cl)c2)n1-c1ccccc1OC` (stereo not drawn): the “protein kinase against which the compound exhibits inhibitory activity (Table 3)” value is recorded as “ROCK2”.

`N#Cc1ccccc1CSc1nnc(-c2cccs2)[nH]1` [2-((5-(thiophen-2-yl)-4H-1,2,4-triazol-3-ylthio)methyl)benzonitrile]: the “protein kinase against which the compound exhibits inhibitory activity (Table 3)” value was “AURORA-A; also recorded: CHEK2; also recorded: GSK3-α”.

For the molecule `CCn1c(CNc2ccc(OC)cc2)nnc1SCc1ccc(Cl)cc1`, the “protein kinase against which the compound exhibits inhibitory activity (Table 3)” value is “PDGFRR-α and FYN(”.

With `CCn1c(COc2ccc(Cl)c(C)c2)nnc1SC(C)C`, the “protein kinase against which the compound exhibits inhibitory activity (Table 3)” value is reported as “AKT1”.

On to `CN(C)CCCSc1nnc(C2CCCC2)[nH]1`, for which the “protein kinase against which the compound exhibits inhibitory activity (Table 3)” value is “c-TAK1”.

Take `Oc1ccccc1-c1nnc(SCc2ccc(F)cc2)n1Cc1ccccc1` [2-(4-benzyl-5-(4-fluorobenzylthio)-4H-1,2,4-triazol-3-yl)phenol]: the “protein kinase against which the compound exhibits inhibitory activity (Table 3)” value is “AURORA-A”.

On to `COc1ccc(NCc2nnc(SCCN3CCCCC3)n2-c2ccccc2OC)cc1`, for which the “protein kinase against which the compound exhibits inhibitory activity (Table 3)” value is “FYN and PDGFRR-α and FLT-3”.

As to `OCC(O)CSc1nnc(CCc2ccccc2)[nH]1` (stereo not drawn), the “protein kinase against which the compound exhibits inhibitory activity (Table 3)” value is “GSK3-α”.

For the molecule `COc1ccccc1-n1c(SCc2ccccc2Cl)nnc1-c1ccccc1O` [2-(5-(2-chlorobenzylthio)-4-(2-methoxyphenyl)-4H-1,2,4-triazol-3-yl)phenol], the “protein kinase against which the compound exhibits inhibitory activity (Table 3)” value was “CDK2-cyclinA and PRAK”.

`CCn1c(COc2ccc(C)cc2)nnc1SCc1ccc(C)cc1` [4-ethyl-3-(4-methylbenzylthio)-5-(p-tolyloxymethyl)-4H-1,2,4-triazole]: the “protein kinase against which the compound exhibits inhibitory activity (Table 3)” value is recorded as “AURORA-A”.
